This is an account of results in US8119616B2, “Formulation of quinazoline based EGFR inhibitors containing a zinc binding moiety” (Curis, Inc., priority 2007, dated 2012).

Each structure is given as a SMILES string. Like-named read-outs stand apart in the source and are kept apart here.

One data set deals with T1, human EGFR (Homo sapiens, UniProt P00533).
T1 construct: human EGFR (His672-Ala1210); purchased Cell Signaling Technologies; host or cells: baculovirus expression system
The data set can be described thus: HTScan EGF Receptor Kinase assay. The settings on record: FIG. 1. Format: biochemical. Here is the method: The ability of compounds to inhibit receptor kinase (EGFR) activity was assayed using HTScan™ EGF Receptor Kinase Assay Kits (Cell Signaling Technologies, Danvers, Mass.). […] The protein was purified by one-step affinity chromatography using glutathione-agarose.
Immediately transfer enzyme from −80° C. to ice. Allowed enzyme to thaw on ice. […] Returned immediately to ice. […] Incubated reaction plate at room temperature for 30 minutes. […] Added 100 μl/well primary antibody. Incubated at room temperature for 60 minutes. […] Added 100 μl/well diluted antibody. Incubated at room temperature for 30 minutes. […] Incubated at room temperature for 5 minutes.

The conditions of data set [1]: both, Sprague Dawley, rat, in vivo, iv, 7 days.
Procedure: 7-day multiple dosing MTD in rats • a. Sprague Dawley, male and female, 220-250 gram • b. Dose, 25, 50, 100, 200 mg/kg/d) iv infusion 5 min • c. 6 per group (3 male and 3 female) • d. Blood and organs will be collected 2 hr after last dosing on Day 7 for hematology Compound Preparation
(§4) Stock solution is diluted with 30% CAPTISOL before use.
The next data set concerns Pancreas_MiaPaCa2. The data set can be described thus: Cell proliferation assay (ATPlite). Format: cell-based. Conditions: 72 hours, 0.5% fetal bovine serum. How it is done: (§1) A representative number of compounds were assayed against several different cell lines using the cell proliferation assay:
(§2) Cell Proliferation Assay:
(§3) Cancer cell lines were plated at 5,000 to 10,000 per well in 96-well flatted bottomed plates with various concentration of compounds. The cells were incubated with compounds for 72 hours in the presence of 0.5% of fetal bovine serum. Growth inhibition was accessed by adenosine triphosphate (ATP) content assay using Perkin Elmer ATPlite kit. ATPlite is an ATP monitoring system based on firefly luciferase. Briefly, 25 μl of mammalian cell lysis solution was added to 50 μl of phenol red-free culture medium per well to lyse the cells and stabilize the ATP. 25 μl of substrate solution was then added to the well and subsequently the luminescence was measured.

The test system of another data set is Epidermoid_A431. The data set is described as follows: Cell proliferation assay (ATPlite). The format is cell-based. The settings on record: 72 hours, 0.5% fetal bovine serum. Here is the method: as §1, §2, §3
For the next data set, the system named is Breast_SkBr3. The data set is described as follows: Cell proliferation assay (ATPlite). The format is cell-based. The settings on record: 72 hours, 0.5% fetal bovine serum. How it is done:
as §1, §2, §3

In the next data set the test system is Colon_HCT116. The data set is described as follows: Cell proliferation assay (ATPlite). The settings on record: 72 hours, 0.5% fetal bovine serum. The format is cell-based. Here is the method: as §1, §2, §3
Another data set deals with Lung_H2122. The data set can be described thus: Cell proliferation assay (ATPlite). Format: cell-based. Conditions: 72 hours, 0.5% fetal bovine serum. Here is the method:
as §1, §2, §3

The next data set has as its system Lung_H292. The data set is described as follows: Cell proliferation assay (ATPlite). The format is cell-based. The settings on record: 72 hours, 0.5% fetal bovine serum. How it is done: as §1, §2, §3
The next data set concerns Pancreas_HPAC. The data set can be described thus: Cell proliferation assay (ATPlite). The settings on record: 72 hours, 0.5% fetal bovine serum. The format is cell-based. How it is done:
as §1, §2, §3

In another data set the test system is Lung_H460. The data set can be described thus: Cell proliferation assay (ATPlite). Format: cell-based. Conditions: 72 hours, 0.5% fetal bovine serum. How it is done:
as §1, §2, §3

In the next data set the test system is Pancreas_PANC1. The data set is described as follows: Cell proliferation assay (ATPlite). The format is cell-based. Conditions: 72 hours, 0.5% fetal bovine serum. How it is done: as §1, §2, §3
The test system of a further data set is Breast_MDAMB468. The data set can be described thus: Cell proliferation assay (ATPlite). Format: cell-based. Conditions: 72 hours, 0.5% fetal bovine serum. Here is the method:
as §1, §2, §3

The next data set relates to Pancreas_CFPAC. The data set is described as follows: Cell proliferation assay (ATPlite). Format: cell-based. Conditions: 72 hours, 0.5% fetal bovine serum. Here is the method: as §1, §2, §3
The test system of another data set is Pancreas_BxPC3. The data set is described as follows: Cell proliferation assay (ATPlite). Format: cell-based. Conditions: 72 hours, 0.5% fetal bovine serum. Here is the method: as §1, §2, §3
In a further data set the test system is Prostate_PC3. The data set can be described thus: Cell proliferation assay (ATPlite). Format: cell-based. The settings on record: 72 hours, 0.5% fetal bovine serum. How it is done:
as §1, §2, §3

In a further data set the test system is Prostate_22RV1. The data set can be described thus: Cell proliferation assay (ATPlite). Format: cell-based. Conditions: 72 hours, 0.5% fetal bovine serum. Here is the method: as §1, §2, §3
Another data set relates to Pancreas_Capan1. The data set can be described thus: Cell proliferation assay (ATPlite). Format: cell-based. Conditions: 72 hours, 0.5% fetal bovine serum. Here is the method: as §1, §2, §3
A further data set relates to Lung_H358. The data set is described as follows: Cell proliferation assay (ATPlite). Format: cell-based. Conditions: 72 hours, 0.5% fetal bovine serum. Here is the method: as §1, §2, §3
The next data set concerns Breast_MCF7. The data set can be described thus: Cell proliferation assay (ATPlite). Format: cell-based. Conditions: 72 hours, 0.5% fetal bovine serum. Here is the method: as §1, §2, §3
Data set [2] relates to HCT-116 (colon) and SKBr3 (breast) cancer cells. The data set is described as follows: Induction of apoptosis (Caspase 3&7 activity). Format: cell-based. The settings on record: HCT-116 and SKBr3, 24 hours.
Data set [3] relates to various cancer cell lines. The data set is described as follows: Anti-proliferative activity in various cancer cell lines (Table D, FIG. 3). Format: cell-based. The settings on record: five major types of cancer (lung, breast, prostate, colon, and pancreas). Here is the method:
as §2, §3
Table D illustrates the potency of compounds of the invention.

The conditions of data set [4]: male, CD-1, mouse, in vivo, iv, 9 day.
Procedure: Single dosing MTD in mice • a. CD-1 mice, male, 24-26 gram • b. Dosing at 0, 50, 100, 200, 400 mg/kg, iv infusion 2 min • c. 8 mice per group
as §4
For data set [5] the following is noted: male, CD-1, mouse, in vivo, ip, 7 days.
Procedure: 7-day-multiple dosing MTD in mice • a. CD-1 mice, male, 24-26 gram • b. Dosing at 0, 50, 100, 200 mg/kg/d ip • c. 6 mice per group • d. Blood and organs will be collected 2 hr after last dosing on Day 7 for hematology
as §4

T1 sequence (P00533 672-1210): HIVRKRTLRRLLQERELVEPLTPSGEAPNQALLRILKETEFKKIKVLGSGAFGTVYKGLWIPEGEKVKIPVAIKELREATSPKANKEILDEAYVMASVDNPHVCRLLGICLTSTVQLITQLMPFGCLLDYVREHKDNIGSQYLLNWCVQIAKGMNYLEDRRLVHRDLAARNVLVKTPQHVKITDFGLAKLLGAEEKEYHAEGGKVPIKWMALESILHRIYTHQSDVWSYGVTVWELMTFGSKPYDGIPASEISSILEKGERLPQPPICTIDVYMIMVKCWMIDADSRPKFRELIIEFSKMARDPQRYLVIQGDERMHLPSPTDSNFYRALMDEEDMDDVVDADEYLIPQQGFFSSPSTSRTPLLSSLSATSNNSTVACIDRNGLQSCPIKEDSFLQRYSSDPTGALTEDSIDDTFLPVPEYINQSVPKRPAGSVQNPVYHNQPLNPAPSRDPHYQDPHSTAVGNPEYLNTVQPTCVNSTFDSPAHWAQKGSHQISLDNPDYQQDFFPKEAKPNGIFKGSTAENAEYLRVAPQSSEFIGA

For `C#Cc1cccc(Nc2ncnc3cc(OC)c(OCCCCCCC(=O)NO)cc23)c1` [Compound 12, 7-(4-(3-ethynylphenylamino)-7-methoxyquinazolin-6-yloxy)-N-hydroxyheptanamide], the “activity in EFGR enzyme assay compared with erlotinib and SAHA” value at human EGFR is “more active than erlotinib and SAHA”. The “dose that did not result in a significant change in body weight or food consumption” value in [1] is given as “up to 100 mg/kg”. Moreover, the IC50 in the data set with Pancreas_MiaPaCa2 was 0.1 to 1 µM; with Epidermoid_A431 it was 0.1 to 1 µM; with Breast_SkBr3 it was 0.1 to 1 µM; with Colon_HCT116 it was 0.1 to 1 µM; in the data set with Lung_H2122, 0.1 to 1 µM; in the data set with Lung_H292 it was under 0.1 µM. For the same molecule, the IC50 is 1 to 10 µM in the data set with Pancreas_HPAC; 0.1 to 1 µM in the data set on Lung_H460; 0.1 to 1 µM in the data set with Pancreas_PANC1; under 0.1 µM with Breast_MDAMB468; 0.1 to 1 µM in the data set with Pancreas_CFPAC; under 0.1 µM in the data set with Pancreas_BxPC3. In addition, the 50% inhibitory concentration (IC50) in the data set with Prostate_PC3 is 0.1 to 1 µM; in the data set with Prostate_22RV1 it was 0.1 to 1 µM; in the data set with Pancreas_Capan1, 0.1 to 1 µM; with Lung_H358, 0.1 to 1 µM; in the data set with Breast_MCF7, under 0.1 µM. Further, in [2], the “cell apoptosis as measured by increased Caspase 3&7 activity” value is on record as 4-11 times. Besides, the “response of cell lines compared with a combination of erlotinib and SAHA” value in [3] is “responded better to compound 12 than a combination of erlotinib and SAHA”. Also, the results for the “dose that did not result in a significant change in body weight” value in data set [4] and in [5] were “up to 200 mg/kg” and “up to 100 mg/kg”, respectively.
